Data published in BindingDB's records for patent US20240360134 (Actelion Pharmaceuticals, 2024).

Legend:
[1] = molecular target: T1, Platelet-derived growth factor receptor beta (Homo sapiens, UniProt P09619); experiment: PDGFRβ HTRF Assay
Protocol: PDGFRβ E+I pre-incubation: Add 2 μL 2× protein solution to columns 1-24 using the Multidrop Combi. Centrifuge at 1000 rpm for 1 min. Incubate 30 min at RTStep 2. Enzymatic reaction: Add 2 μL substrate solution to columns 1-24 to initiate the reaction using the Multidrop Combi; cover/seal the assay plate to reduce evaporation. Centrifuge at 1000 rpm for 1 min. […] Quench/Detection: Add 2 μl 3× quench/detection solution to columns 1-24 using the Multidrop Combi; cover/seal the plate. Centrifuge 1 min 1000 rpm. Incubate at RT for 60 min.

[2] = molecular target: Vascular endothelial growth factor receptor 2 (Homo sapiens, UniProt P35968); experiment: VEGFR ADP GLO Assay
Protocol: Step 1. Dispensing inhibitors/controls: Using Echo, dispense 10 nL/well compound serial dilutions in DMSO to columns 1-22 (in 384-well plates) or columns 1-44 (in 1536-well plates). Dilution series=11 pt, 3-fold dilutions. The top compound concentration in the source plate is […]. The top compound concentration in the assay plate is 10 uM. Using Echo, dispense 10 nl/well DMSO to column 23 (in 384-well plates) or columns 45-47 (in 1536-well plates). These wells will serve as negative control wells Using Echo, dispense 10 nl/well 400 uM TAK-593 in DMSO to column 24 (in 384-well plates) or column 48 (in 1536-well plates). The final concentration of TAK-593 in the assay should be 1 uM. These wells will serve as positive control wells.Step 2. Pre-incubation of inhibitors with kinase: Add 2 μL/well 2× kinase solution. Centrifuge at 1000 rpm for 1 min. Incubate at room temperature for 30 min.Step 3. Kinase cascade reaction: Add 2 μL/well 2× substrate/ATP solution to initiate kinase reactions. Centrifuge at 1000 rpm for 1 min. Incubate at room temperature for 180 min.Final concentrations of components in the assay:[VEGFR2]=5 nM;[ATP]=1.2 mM;[Srctide]=1 mg/mL;[DMSO]≤1%.Step 4. Quench: Add 2 uL/well ADP Glo Reagent+0.05% CHAPS. Centrifuge at 1000 rpm for 1 min; Incubate at room temperature for one hour.Step 5. Detection: Add 2 uL/well Kinase Detection Reagent+0.05% CHAPS. Centrifuge at 1000 rpm for 1 min; Incubate at room temperature for 1 hour; Read Luminescence on a plate reader.

[3] = molecular target: T1, Platelet-derived growth factor receptor beta; experiment: PDGFRβ LanthaScreen Assay
Protocol: Dispensing inhibitors: Using Echo, dispense 40 nL/well (or less) compound serial dilutions in DMSO onto the assay plate.Step 2. Dispensing Kinase-Tracer solution: Add 4 μL/well Kinase-Tracer solution. Seal the plate with optically transparent plate seal. […] Detection: Read TR-FRET signals after 18 hours incubation at room temperature.III. […] IC50 values are determined from a 4-parameter fit, using the following equation: Y=Bottom+(Top−Bottom)/(1+10((Log IC50−X)*Hill slope)), where X=log10 of the compound concentration; top can be defined by PC; bottom defined by NC.

Sequence of Vascular endothelial growth factor receptor 2 (P35968 whole entry): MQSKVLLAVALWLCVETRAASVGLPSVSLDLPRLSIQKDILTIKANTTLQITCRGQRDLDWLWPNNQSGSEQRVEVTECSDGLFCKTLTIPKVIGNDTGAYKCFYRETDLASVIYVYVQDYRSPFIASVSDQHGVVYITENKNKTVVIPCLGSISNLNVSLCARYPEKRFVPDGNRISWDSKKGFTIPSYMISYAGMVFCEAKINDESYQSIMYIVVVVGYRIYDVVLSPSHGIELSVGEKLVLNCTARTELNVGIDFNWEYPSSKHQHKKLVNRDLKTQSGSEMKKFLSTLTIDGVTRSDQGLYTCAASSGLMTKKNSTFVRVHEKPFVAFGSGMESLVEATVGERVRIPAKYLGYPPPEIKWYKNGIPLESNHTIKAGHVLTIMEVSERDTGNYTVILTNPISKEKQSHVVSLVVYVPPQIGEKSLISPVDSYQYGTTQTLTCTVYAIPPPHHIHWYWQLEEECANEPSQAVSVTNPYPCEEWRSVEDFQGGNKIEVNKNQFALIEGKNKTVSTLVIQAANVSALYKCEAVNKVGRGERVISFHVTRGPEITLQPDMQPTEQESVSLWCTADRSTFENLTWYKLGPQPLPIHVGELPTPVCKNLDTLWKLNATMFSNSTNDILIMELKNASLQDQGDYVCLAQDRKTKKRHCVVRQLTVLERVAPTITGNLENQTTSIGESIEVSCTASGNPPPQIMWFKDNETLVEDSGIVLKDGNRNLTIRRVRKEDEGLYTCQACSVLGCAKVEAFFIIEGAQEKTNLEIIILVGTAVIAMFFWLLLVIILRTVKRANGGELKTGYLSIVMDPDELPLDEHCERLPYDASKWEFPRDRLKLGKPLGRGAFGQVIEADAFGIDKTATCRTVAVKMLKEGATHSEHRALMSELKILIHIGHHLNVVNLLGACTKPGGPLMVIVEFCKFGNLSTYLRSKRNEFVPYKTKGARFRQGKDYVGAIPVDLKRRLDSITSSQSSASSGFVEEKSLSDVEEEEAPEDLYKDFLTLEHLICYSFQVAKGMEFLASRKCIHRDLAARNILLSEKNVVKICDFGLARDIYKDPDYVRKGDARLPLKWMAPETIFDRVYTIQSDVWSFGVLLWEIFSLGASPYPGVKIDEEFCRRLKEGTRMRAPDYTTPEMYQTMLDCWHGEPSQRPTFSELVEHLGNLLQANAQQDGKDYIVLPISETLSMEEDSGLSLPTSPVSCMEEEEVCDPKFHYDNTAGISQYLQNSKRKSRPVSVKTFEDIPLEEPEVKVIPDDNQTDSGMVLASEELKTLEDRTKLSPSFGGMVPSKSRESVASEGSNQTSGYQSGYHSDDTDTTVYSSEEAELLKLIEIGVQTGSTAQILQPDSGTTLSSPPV
T1 sequence (P09619 whole entry): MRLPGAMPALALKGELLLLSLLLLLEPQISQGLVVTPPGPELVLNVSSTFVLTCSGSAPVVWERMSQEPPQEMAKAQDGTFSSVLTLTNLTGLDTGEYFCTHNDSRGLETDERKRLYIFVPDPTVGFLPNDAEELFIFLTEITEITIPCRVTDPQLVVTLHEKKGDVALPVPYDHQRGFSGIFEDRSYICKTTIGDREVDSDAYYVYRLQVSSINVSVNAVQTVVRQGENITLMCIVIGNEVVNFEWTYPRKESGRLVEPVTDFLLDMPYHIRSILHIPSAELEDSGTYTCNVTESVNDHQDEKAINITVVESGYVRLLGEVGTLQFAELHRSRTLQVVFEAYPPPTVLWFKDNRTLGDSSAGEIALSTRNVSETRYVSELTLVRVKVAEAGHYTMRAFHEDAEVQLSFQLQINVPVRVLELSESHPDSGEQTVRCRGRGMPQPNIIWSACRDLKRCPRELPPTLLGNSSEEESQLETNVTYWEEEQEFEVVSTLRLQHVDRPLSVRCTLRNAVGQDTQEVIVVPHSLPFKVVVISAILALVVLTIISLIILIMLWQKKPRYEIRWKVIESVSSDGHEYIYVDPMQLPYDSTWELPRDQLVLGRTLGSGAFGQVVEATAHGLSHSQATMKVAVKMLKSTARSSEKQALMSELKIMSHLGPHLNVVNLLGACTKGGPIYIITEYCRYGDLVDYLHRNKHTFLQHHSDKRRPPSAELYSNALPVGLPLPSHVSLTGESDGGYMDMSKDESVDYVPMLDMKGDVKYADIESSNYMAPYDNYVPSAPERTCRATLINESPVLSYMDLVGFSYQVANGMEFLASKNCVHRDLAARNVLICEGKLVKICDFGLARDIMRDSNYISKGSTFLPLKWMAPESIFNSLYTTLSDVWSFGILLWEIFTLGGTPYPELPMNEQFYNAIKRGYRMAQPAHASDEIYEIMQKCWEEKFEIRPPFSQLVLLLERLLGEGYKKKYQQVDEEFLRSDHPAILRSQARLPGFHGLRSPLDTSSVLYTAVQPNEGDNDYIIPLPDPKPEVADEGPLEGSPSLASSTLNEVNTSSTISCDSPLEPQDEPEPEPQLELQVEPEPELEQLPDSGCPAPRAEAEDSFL

| SMILES | IC50 [1] | IC50 [2] | IC50 [3] |
| --- | --- | --- | --- |
| Cc1ncc(NC(=O)CN2C[C@H](C)O[C@@H](C)C2)cc1Nc1nn(C)c2nc(Nc3cnn(C)c3)ncc12 (relative stereo) [US20240360134, Example 73] | 0.5 nM | 4570 nM | 2.6 nM |
| COC(=O)Cc1cccc(Nc2ncc3c(Nc4cc(C(=O)NCCN5CCCC5(C)C)cnc4C)nn(C)c3n2)c1 [US20240360134, Example 43] | 0.54 nM | 2080 nM | 4.1 nM |
| COC(=O)C(C)(C)c1cccc(Nc2ncc3c(Nc4cc(C(=O)NCCN5CCCC5(C)C)cnc4C)nn(C)c3n2)c1 [US20240360134, Example 46] | 0.81 nM | 3580 nM | 4.9 nM |
| Cc1ncc(NC(=O)CN2CCC[C@@H]2C)cc1Nc1nn(C)c2nc(Nc3cnn(C)c3)ncc12 [US20240360134, Example 71] | 0.25 nM | > 7500 nM | 2.1 nM |
| Cc1ncc(NC(=O)CN2CCC(F)(F)CC2)cc1Nc1nn(C)c2nc(Nc3cnn(C)c3)ncc12 [US20240360134, Example 72] | 0.27 nM | 1100 nM | 1.7 nM |
| Cc1ncc(NC(=O)CN2CCC3(CC3)C2)cc1Nc1nn(C)c2nc(Nc3cnn(C)c3)ncc12 [US20240360134, Example 74] | 0.23 nM | 5070 nM | 1.6 nM |
| Cc1ncc(NC(=O)CN2CCC(F)(F)C2)cc1Nc1nn(C)c2nc(Nc3cnn(C)c3)ncc12 [US20240360134, Example 75] | 0.35 nM | 847 nM | 2.1 nM |
| Cc1ncc(NC(=O)CN2CC(F)(F)C2)cc1Nc1nn(C)c2nc(Nc3cnn(C)c3)ncc12 [US20240360134, Example 76] | 0.42 nM | 3600 nM | 2.6 nM |
| Cc1ncc(NC(=O)CN2C[C@@H](C)O[C@@H](C)C2)cc1Nc1nn(C)c2nc(Nc3cnn(C)c3)ncc12 [US20240360134, Example 78] | 0.59 nM | 3930 nM | 3.7 nM |
| Cc1ncc(NC(=O)CN(CCO)C2CCCC2)cc1Nc1nn(C)c2nc(Nc3cnn(C)c3)ncc12 [US20240360134, Example 79] | – | 5390 nM | 2.5 nM |
| Cc1ncc(NC(=O)CN(CCCO)C2CCCC2)cc1Nc1nn(C)c2nc(Nc3cnn(C)c3)ncc12 [US20240360134, Example 80] | 0.5 nM | > 7500 nM | 3.2 nM |
